Measurements: the supplement of paper PMC10307832

Tests used:
Test in all cases: relative viability (nuclei count vs DMSO), 5 days (fraction); higher = more cells survive
Idelalisib + Linsitinib = compound: CC[C@H](Nc1ncnc2[nH]cnc12)c1nc2cccc(F)c2c(=O)n1-c1ccccc1 [Idelalisib] + C[C@]1(O)C[C@@H](c2nc(-c3ccc4ccc(-c5ccccc5)nc4c3)c3c(N)nccn32)C1 [Linsitinib] (partner 1 µM)
How it was run: (§1)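 Lung cancer cell lines, seeded in 1536-well plates, were treated the following day by pin tool with a single drug or with five library-drug doses (not always all listed) in √10 steps on top of a fixed anchor-drug dose. Cells were fixed and nuclei stained in one step after 5 days, and nuclei were counted. Relative viability is the nuclei count for treated wells divided by that for vehicle wells, reported as medians of duplicate plates.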

Pemetrexed + Palbociclib = compound: Nc1nc2[nH]cc(CCc3ccc(C(=O)N[C@@H](CCC(=O)O)C(=O)O)cc3)c2c(=O)[nH]1 [Pemetrexed] + CC(=O)c1c(C)c2cnc(Nc3ccc(N4CCNCC4)cn3)nc2n(C2CCCC2)c1=O [Palbociclib] (partner 0.5 µM)
How it was run: as §1

Pemetrexed + Bortezomib = compound: Nc1nc2[nH]cc(CCc3ccc(C(=O)N[C@@H](CCC(=O)O)C(=O)O)cc3)c2c(=O)[nH]1 [Pemetrexed] + CC(C)C[C@H](NC(=O)[C@H](Cc1ccccc1)NC(=O)c1cnccn1)B(O)O [Bortezomib] (partner 0.002 µM)
How it was run: as §1

Pemetrexed + Linsitinib = compound: Nc1nc2[nH]cc(CCc3ccc(C(=O)N[C@@H](CCC(=O)O)C(=O)O)cc3)c2c(=O)[nH]1 [Pemetrexed] + C[C@]1(O)C[C@@H](c2nc(-c3ccc4ccc(-c5ccccc5)nc4c3)c3c(N)nccn32)C1 [Linsitinib] (partner 1 µM)
How it was run: as §1

Q: With UMC-11 as the cell line, how does the relative viability (Idelalisib + Linsitinib; first compound 0.04 µM) read?
A: 0.912

Q: And the relative viability (Idelalisib + Linsitinib; first compound 0.1265 µM)?
A: 1.02

Q: And the relative viability (Idelalisib + Linsitinib; first compound 0.4 µM)?
A: 0.966

Q: And the relative viability (Idelalisib + Linsitinib; first compound 1.265 µM)?
A: 1.01

Q: And the relative viability (Idelalisib + Linsitinib; first compound 4 µM)?
A: 1.06

Q: And the relative viability (Pemetrexed + Palbociclib; first compound 0.002 µM)?
A: 0.344

Q: What about the relative viability (Pemetrexed + Palbociclib; first compound 0.006325 µM) of the same cell line?
A: 0.322

Q: What about the relative viability (Pemetrexed + Palbociclib; first compound 0.02 µM) of the same cell line?
A: 0.343

Q: And the relative viability (Pemetrexed + Palbociclib; first compound 0.06325 µM)?
A: 0.342

Q: What about the relative viability (Pemetrexed + Palbociclib; first compound 0.2 µM) of the same cell line?
A: 0.357

Q: What about the relative viability (Pemetrexed + Bortezomib; first compound 0.002 µM) of the same cell line?
A: 0.573

Q: What about the relative viability (Pemetrexed + Bortezomib; first compound 0.006325 µM) of the same cell line?
A: 0.639

Q: What about the relative viability (Pemetrexed + Bortezomib; first compound 0.02 µM) of the same cell line?
A: 0.682

Q: And the relative viability (Pemetrexed + Bortezomib; first compound 0.06325 µM)?
A: 0.991

Q: What about the relative viability (Pemetrexed + Bortezomib; first compound 0.2 µM) of the same cell line?
A: 0.698

Q: And the relative viability (Pemetrexed + Linsitinib; first compound 0.002 µM)?
A: 0.836

Q: What about the relative viability (Pemetrexed + Linsitinib; first compound 0.006325 µM) of the same cell line?
A: 1.03

Q: What about the relative viability (Pemetrexed + Linsitinib; first compound 0.02 µM) of the same cell line?
A: 1.08

Q: What about the relative viability (Pemetrexed + Linsitinib; first compound 0.06325 µM) of the same cell line?
A: 0.985

Q: And the relative viability (Pemetrexed + Linsitinib; first compound 0.2 µM)?
A: 0.903
